In PubChem BioAssay AID220 (DTP/NCI, 2004):
Several values for one entry are separate records, joined by “and”; a condition that tells them apart may be missing. Equal entries are not always repeated. Inconclusive results are not listed.

System: CD8F1 mice, subcutaneous mammary adenocarcinoma, T/C%
Assay: NCI In Vivo Anticancer Drug Screen. Data for tumor model Mammary Adenocarcinoma CD8F1 (subcutaneous) in CD8F1
Conditions: higher = larger tumour
Summary of the method: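 Mice carrying transplanted tumors received test compound, and survival or tumor size was recorded. Each value is the treated-group measurement divided by the corresponding measurement in vehicle-dosed controls.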

[1] = endpoint: median tumor weight (est.), dose: 25.0 mg/kg/injection, schedule: Q07DX005 (ip), vehicle: Klucel (hydroxypropylcellulose) (HPC)
[2] = endpoint: median tumor weight (est.), dose: 50.0 mg/kg/injection, schedule: Q07DX005 (ip), vehicle: Klucel (hydroxypropylcellulose) (HPC)
[3] = endpoint: median tumor weight change, dose: 125.0 mg/kg/injection, schedule: Q01DX001 (ip), vehicle: saline with Tween-80
[4] = endpoint: median tumor weight change, dose: 250.0 mg/kg/injection, schedule: Q01DX001 (ip), vehicle: saline with Tween-80
[5] = endpoint: median tumor weight (est.), dose: 50.0 mg/kg/injection, schedule: Q07DX005 (ip), vehicle: water

C1CCC2OCCOCCOC3CCCCC3OCCOCCOC2C1 (stereo unspecified)
T/C (endpoint: median tumor weight (est.), dose: 3.12 mg/kg/injection, schedule: Q07DX005 (ip), vehicle: Klucel (hydroxypropylcellulose) (HPC)): 90 % of control
T/C (endpoint: median tumor weight (est.), dose: 6.25 mg/kg/injection, schedule: Q07DX005 (ip), vehicle: Klucel (hydroxypropylcellulose) (HPC)): 55 % of control
T/C [1]: 70 % of control
T/C [2]: 83 % of control

CC(C)(Oc1ccc(-c2cccc3ccccc23)cc1)C(=O)O
T/C [1]: 48 % of control
T/C [2]: 52 % of control
T/C (endpoint: median tumor weight (est.), dose: 100.0 mg/kg/injection, schedule: Q07DX005 (ip), vehicle: Klucel (hydroxypropylcellulose) (HPC)): 57 % of control
T/C (endpoint: median tumor weight (est.), dose: 200.0 mg/kg/injection, schedule: Q07DX005 (ip), vehicle: Klucel (hydroxypropylcellulose) (HPC)): 79 % of control
T/C (endpoint: median tumor weight (est.), dose: 400.0 mg/kg/injection, schedule: Q07DX005 (ip), vehicle: Klucel (hydroxypropylcellulose) (HPC)): 39 % of control

Cn1/c2cc/c1=C(\c1ccc(S(=O)(=O)O)cc1)c1ccc([n-]1)/C(c1ccc(S(=O)(=O)O)cc1)=c1/cc/c([nH]1)=C(\c1ccc(S(=O)(=O)O)cc1)c1ccc([n-]1)/C=2c1ccc(S(=O)(=O)O)cc1.O.O=S(=O)(O)C(F)(F)F.[Cu+2]
T/C (endpoint: median tumor weight change, dose: 62.5 mg/kg/injection, schedule: Q01DX001 (ip), vehicle: saline): 124 % of control

CC(C)CC(=O)NC(C(=O)NC(C(=O)NC(CC(C)C)C(O)CC(=O)NC(C)C(=O)NC(CC(C)C)C(O)CC(=O)O)C(C)C)C(C)C (stereo unspecified)
T/C (endpoint: median tumor weight change, dose: 62.5 mg/kg/injection, schedule: Q01DX001 (ip), vehicle: Klucel (hydroxypropylcellulose) (HPC)): 97 % of control

CCOC(=O)c1[nH]c2cccc3c2c1CC(Br)C3=O (stereo unspecified)
T/C [3]: 86 % of control
T/C [4]: 52 % of control

O=P1(NCCCl)OCCCN1CCCl (stereo unspecified)
T/C (endpoint: median tumor weight (est.), dose: 25.0 mg/kg/injection, schedule: Q07DX005 (ip), vehicle: saline): 26 % of control and 29 % of control
T/C (endpoint: median tumor weight (est.), dose: 50.0 mg/kg/injection, schedule: Q07DX005 (ip), vehicle: saline): 11 % of control and 12 % of control
T/C (endpoint: median tumor weight (est.), dose: 100.0 mg/kg/injection, schedule: Q07DX005 (ip), vehicle: saline): 6 % of control

N[C@H](C(=O)O)[C@@H]1CC(Cl)=NO1
T/C (endpoint: median tumor weight (est.), dose: 1.0 mg/kg/injection, schedule: Q07DX005 (ip), vehicle: saline): 167 % of control
T/C (endpoint: median tumor weight (est.), dose: 2.0 mg/kg/injection, schedule: Q07DX005 (ip), vehicle: saline): 92 % of control and 100 % of control and 101 % of control
T/C (endpoint: median tumor weight (est.), dose: 128.0 mg/kg/injection, schedule: Q07DX005 (ip), vehicle: saline): 13 % of control

C=C(NC(=O)C(=C)NC(=O)c1csc(C2=NC3c4csc(n4)C4NC(=O)c5csc(n5)C(C(C)(O)C(C)O)NC(=O)C5CSC(=N5)/C(=C/C)NC(=O)C(C(C)O)NC(=O)c5csc(n5)C3(CC2)NC(=O)C(C)NC(=O)C(=C)NC(=O)C(=C)NC(=O)C(C(C)C)NC2C=Cc3c(C(C)O)cc(nc3C2O)C(=O)OC4C)n1)C(N)=O (stereo unspecified)
T/C (endpoint: median tumor weight change, dose: 125.0 mg/kg/injection, schedule: Q01DX001 (ip), vehicle: saline): 156 % of control
T/C (endpoint: median tumor weight change, dose: 250.0 mg/kg/injection, schedule: Q01DX001 (ip), vehicle: saline): 106 % of control
T/C (endpoint: median tumor weight change, dose: 500.0 mg/kg/injection, schedule: Q01DX001 (ip), vehicle: saline): 110 % of control
T/C (endpoint: median tumor weight change, dose: 1000.0 mg/kg/injection, schedule: Q01DX001 (ip), vehicle: saline): 86 % of control

O=[N+]([O-])c1ccc(-n2[nH]nnc2=S)cc1
T/C [3]: 101 % of control and 119 % of control
T/C [4]: 112 % of control

N#CCCSC(=S)C1CCCC1=N (stereo unspecified)
T/C [3]: 44 % of control
T/C [4]: 98 % of control
T/C (endpoint: median tumor weight change, dose: 500.0 mg/kg/injection, schedule: Q01DX001 (ip), vehicle: saline with Tween-80): 86 % of control and 108 % of control

CCCNC1=C(C)C(=O)C2=C(C1=O)[C@H](COC(N)=O)[C@]1(OC)[C@@H]3N[C@@H]3CN21
T/C (endpoint: median tumor weight change, dose: 3.75 mg/kg/injection, schedule: Q01DX001 (ip), vehicle: saline): 7 % of control
T/C (endpoint: median tumor weight change, dose: 7.5 mg/kg/injection, schedule: Q01DX001 (ip), vehicle: saline): 13 % of control
T/C (endpoint: median tumor weight change, dose: 15.0 mg/kg/injection, schedule: Q01DX001 (ip), vehicle: saline): -66 % of control

CCN(CC)CCNc1ccc(CO)c2sc3ccccc3c(=O)c12
T/C (endpoint: median tumor weight (est.), dose: 6.25 mg/kg/injection, schedule: Q07DX005 (ip), vehicle: water): 62 % of control
T/C (endpoint: median tumor weight (est.), dose: 12.5 mg/kg/injection, schedule: Q07DX005 (ip), vehicle: clinical formulation): 120 % of control
T/C (endpoint: median tumor weight (est.), dose: 12.5 mg/kg/injection, schedule: Q07DX005 (ip), vehicle: water): 67 % of control
T/C (endpoint: median tumor weight (est.), dose: 25.0 mg/kg/injection, schedule: Q07DX005 (ip), vehicle: clinical formulation): 82 % of control
T/C (endpoint: median tumor weight (est.), dose: 25.0 mg/kg/injection, schedule: Q07DX005 (ip), vehicle: water): 51 % of control
T/C (endpoint: median tumor weight (est.), dose: 50.0 mg/kg/injection, schedule: Q07DX005 (ip), vehicle: clinical formulation): 53 % of control
T/C [5]: 39 % of control
T/C (endpoint: median tumor weight (est.), dose: 100.0 mg/kg/injection, schedule: Q07DX005 (ip), vehicle: clinical formulation): 17 % of control
T/C (endpoint: median tumor weight (est.), dose: 100.0 mg/kg/injection, schedule: Q07DX005 (ip), vehicle: water): 3 % of control

Nc1n[n+](-c2ccccc2)no1
T/C (endpoint: median tumor weight (est.), dose: 3.12 mg/kg/injection, schedule: Q07DX005 (ip), vehicle: water): 82 % of control
T/C [5]: 10 % of control and 34 % of control
T/C (endpoint: median tumor weight change, dose: 16.0 mg/kg/injection, schedule: Q01DX001 (ip), vehicle: water): 39 % of control
T/C (endpoint: median tumor weight change, dose: 31.0 mg/kg/injection, schedule: Q01DX001 (ip), vehicle: water): 70 % of control
T/C (endpoint: median tumor weight change, dose: 62.0 mg/kg/injection, schedule: Q01DX001 (ip), vehicle: water): 35 % of control

CC(=O)Nc1ccc(S(=O)(=O)CO)cc1
T/C (endpoint: median tumor weight (est.), dose: 12.5 mg/kg/injection, schedule: Q07DX005 (ip), vehicle: saline with Tween-80): 222 % of control and 77 % of control
T/C (endpoint: median tumor weight (est.), dose: 25.0 mg/kg/injection, schedule: Q07DX005 (ip), vehicle: saline with Tween-80): 174 % of control and 409 % of control
T/C (endpoint: median tumor weight (est.), dose: 50.0 mg/kg/injection, schedule: Q07DX005 (ip), vehicle: saline with Tween-80): 189 % of control and 268 % of control
T/C (endpoint: median tumor weight (est.), dose: 100.0 mg/kg/injection, schedule: Q07DX005 (ip), vehicle: saline with Tween-80): 211 % of control and 271 % of control
T/C (endpoint: median tumor weight (est.), dose: 200.0 mg/kg/injection, schedule: Q07DX005 (ip), vehicle: saline with Tween-80): 186 % of control and 403 % of control
T/C (endpoint: median tumor weight (est.), dose: 400.0 mg/kg/injection, schedule: Q07DX005 (ip), vehicle: saline with Tween-80): 165 % of control and 281 % of control

O=C(NO)c1ccc(O)c(O)c1
T/C (endpoint: median tumor weight change, dose: 300.0 mg/kg/injection, schedule: Q01DX001 (ip), vehicle: water): 89 % of control
T/C (endpoint: median tumor weight change, dose: 600.0 mg/kg/injection, schedule: Q01DX001 (ip), vehicle: water): 48 % of control

Nc1nc2c(ncn2C2OC(CO)C(O)C2N)c(=O)[nH]1 (stereo unspecified)
T/C (endpoint: median tumor weight (est.), dose: 4.5 mg/kg/injection, schedule: Q07DX005 (ip), vehicle: saline with Tween-80): 79 % of control
T/C (endpoint: median tumor weight (est.), dose: 9.0 mg/kg/injection, schedule: Q07DX005 (ip), vehicle: saline with Tween-80): 99 % of control
T/C (endpoint: median tumor weight (est.), dose: 36.0 mg/kg/injection, schedule: Q07DX005 (ip), vehicle: saline with Tween-80): 172 % of control
T/C (endpoint: median tumor weight (est.), dose: 72.0 mg/kg/injection, schedule: Q07DX005 (ip), vehicle: saline with Tween-80): 106 % of control

Nc1ccc(S(=O)(=O)Nc2cnc3c(Cl)cccc3n2)cc1
T/C (endpoint: median tumor weight change, dose: 125.0 mg/kg/injection, schedule: Q01DX001 (ip), vehicle: DMSO): 96 % of control
T/C (endpoint: median tumor weight change, dose: 500.0 mg/kg/injection, schedule: Q01DX001 (ip), vehicle: DMSO): 102 % of control and 121 % of control
T/C (endpoint: median tumor weight change, dose: 2000.0 mg/kg/injection, schedule: Q01DX001 (ip), vehicle: DMSO): 102 % of control

O=C(O)c1ccc(C(=O)O)c(C(=O)O)c1.[NH-]C1CCCCC1[NH-].[Pt+2]
T/C (endpoint: median tumor weight (est.), dose: 1.56 mg/kg/injection, schedule: Q07DX005 (ip), vehicle: sodium bicarbonate): 38 % of control
T/C (endpoint: median tumor weight (est.), dose: 3.12 mg/kg/injection, schedule: Q07DX005 (ip), vehicle: sodium bicarbonate): 24 % of control
T/C (endpoint: median tumor weight (est.), dose: 6.25 mg/kg/injection, schedule: Q07DX005 (ip), vehicle: sodium bicarbonate): 11 % of control
T/C (endpoint: median tumor weight (est.), dose: 12.5 mg/kg/injection, schedule: Q07DX005 (ip), vehicle: sodium bicarbonate): 11 % of control
T/C (endpoint: median tumor weight (est.), dose: 25.0 mg/kg/injection, schedule: Q07DX005 (ip), vehicle: sodium bicarbonate): 32 % of control

Cc1ccc2nc(-c3ccc4nc(-c5ccc(N=Nc6ccc(-c7nc8ccc(-c9nc%10ccc(C)c(S(=O)(=O)O)c%10s9)cc8s7)cc6)cc5)sc4c3)sc2c1S(=O)(=O)O
T/C (endpoint: median tumor weight change, dose: 125.0 mg/kg/injection, schedule: Q01DX001 (ip), vehicle: suspension in saline): 94 % of control
T/C (endpoint: median tumor weight change, dose: 250.0 mg/kg/injection, schedule: Q01DX001 (ip), vehicle: suspension in saline): 62 % of control

O=C1c2ccccc2C(=O)c2c(NCCNCCO)ccc(O)c21
T/C (endpoint: median tumor weight change, dose: 25.0 mg/kg/injection, schedule: Q01DX001 (ip), vehicle: saline with Tween-80): 91 % of control
T/C (endpoint: median tumor weight change, dose: 50.0 mg/kg/injection, schedule: Q01DX001 (ip), vehicle: saline with Tween-80): 44 % of control
T/C (endpoint: median tumor weight change, dose: 100.0 mg/kg/injection, schedule: Q01DX001 (ip), vehicle: saline with Tween-80): 41 % of control
T/C (endpoint: median tumor weight change, dose: 200.0 mg/kg/injection, schedule: Q01DX001 (ip), vehicle: saline with Tween-80): 33 % of control
